The text below walks through data of ChEMBL document CHEMBL3991601, “The target landscape of clinical kinase drugs” (Science, 2017).

The source made the active and inactive calls. Unless noted, no cut-off for these calls is given here.

In assay [1] the target is 5'-AMP-activated protein kinase subunit gamma-1 (Homo sapiens, UniProt P54619).
The target of assay [2] is 5'-AMP-activated protein kinase subunit gamma-2 (Homo sapiens, UniProt Q9UGJ0).
Assay [3] addresses T1, Uncharacterized protein FLJ45252 (Homo sapiens, UniProt Q6ZSR9).
T1 sequence (Q6ZSR9 whole entry): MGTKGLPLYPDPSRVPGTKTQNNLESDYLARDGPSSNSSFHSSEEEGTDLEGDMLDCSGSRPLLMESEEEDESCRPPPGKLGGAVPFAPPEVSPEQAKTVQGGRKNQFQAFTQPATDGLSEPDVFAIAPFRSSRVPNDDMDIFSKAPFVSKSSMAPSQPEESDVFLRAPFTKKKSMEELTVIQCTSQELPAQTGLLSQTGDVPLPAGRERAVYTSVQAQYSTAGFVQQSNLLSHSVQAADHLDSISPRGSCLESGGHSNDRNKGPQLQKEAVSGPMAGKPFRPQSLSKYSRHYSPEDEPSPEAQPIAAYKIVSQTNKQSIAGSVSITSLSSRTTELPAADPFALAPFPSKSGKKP

Assay [4] deals with T2, General transcription and DNA repair factor IIH helicase subunit XPD (Homo sapiens, UniProt P18074).
T2 sequence (P18074 whole entry): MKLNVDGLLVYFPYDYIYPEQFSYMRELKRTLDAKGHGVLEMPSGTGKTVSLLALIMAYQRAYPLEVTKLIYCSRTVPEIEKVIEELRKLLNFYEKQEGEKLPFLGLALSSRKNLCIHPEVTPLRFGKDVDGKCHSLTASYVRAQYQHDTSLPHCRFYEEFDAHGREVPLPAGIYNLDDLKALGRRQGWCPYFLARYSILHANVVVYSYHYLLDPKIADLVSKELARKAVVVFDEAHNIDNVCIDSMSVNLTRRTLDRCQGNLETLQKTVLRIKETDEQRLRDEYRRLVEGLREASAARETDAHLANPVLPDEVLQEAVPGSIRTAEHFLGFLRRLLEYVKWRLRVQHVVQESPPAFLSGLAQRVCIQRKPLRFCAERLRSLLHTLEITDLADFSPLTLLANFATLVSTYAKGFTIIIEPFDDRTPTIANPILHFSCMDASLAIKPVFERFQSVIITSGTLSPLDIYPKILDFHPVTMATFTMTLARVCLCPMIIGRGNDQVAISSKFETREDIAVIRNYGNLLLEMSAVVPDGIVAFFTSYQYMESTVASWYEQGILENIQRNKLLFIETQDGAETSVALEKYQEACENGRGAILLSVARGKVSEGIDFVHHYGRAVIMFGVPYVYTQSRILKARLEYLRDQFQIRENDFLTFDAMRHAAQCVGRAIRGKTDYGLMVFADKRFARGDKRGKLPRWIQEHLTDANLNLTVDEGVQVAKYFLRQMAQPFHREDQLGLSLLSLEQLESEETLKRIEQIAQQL

Assay [5] has as its target ALK tyrosine kinase receptor (Homo sapiens, UniProt Q9UM73). Type of assay: subcellular, K-562, COLO 205, SK-N-BE(2) and MV-4-11, Cell lysate. Particulars: read-out: Kd apparent.
For assay [6], the target named is Putative nucleoside diphosphate kinase (Homo sapiens, UniProt O60361).
Chain of Putative nucleoside diphosphate kinase (O60361 whole entry): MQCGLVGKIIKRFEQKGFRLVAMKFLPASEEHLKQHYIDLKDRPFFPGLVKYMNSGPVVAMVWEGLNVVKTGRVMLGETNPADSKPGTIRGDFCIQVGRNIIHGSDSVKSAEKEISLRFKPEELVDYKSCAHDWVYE
Assay [7] has as its target Nucleoside diphosphate kinase B (Homo sapiens, UniProt P22392).
Assay [8] deals with T3, Dual specificity mitogen-activated protein kinase kinase 4 (Homo sapiens, UniProt P45985).
T3 sequence (P45985 whole entry): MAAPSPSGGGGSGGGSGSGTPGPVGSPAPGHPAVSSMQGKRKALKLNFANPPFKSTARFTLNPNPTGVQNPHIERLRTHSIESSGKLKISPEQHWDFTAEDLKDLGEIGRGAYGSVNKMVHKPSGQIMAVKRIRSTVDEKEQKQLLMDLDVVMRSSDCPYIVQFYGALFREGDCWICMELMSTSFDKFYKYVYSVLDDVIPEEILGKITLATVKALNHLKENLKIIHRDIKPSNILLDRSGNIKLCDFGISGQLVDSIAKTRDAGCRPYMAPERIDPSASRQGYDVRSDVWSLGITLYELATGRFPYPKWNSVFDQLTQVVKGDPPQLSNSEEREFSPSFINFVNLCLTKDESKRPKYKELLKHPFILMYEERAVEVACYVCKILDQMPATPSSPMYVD

Chain of 5'-AMP-activated protein kinase subunit gamma-1 (P54619 whole entry): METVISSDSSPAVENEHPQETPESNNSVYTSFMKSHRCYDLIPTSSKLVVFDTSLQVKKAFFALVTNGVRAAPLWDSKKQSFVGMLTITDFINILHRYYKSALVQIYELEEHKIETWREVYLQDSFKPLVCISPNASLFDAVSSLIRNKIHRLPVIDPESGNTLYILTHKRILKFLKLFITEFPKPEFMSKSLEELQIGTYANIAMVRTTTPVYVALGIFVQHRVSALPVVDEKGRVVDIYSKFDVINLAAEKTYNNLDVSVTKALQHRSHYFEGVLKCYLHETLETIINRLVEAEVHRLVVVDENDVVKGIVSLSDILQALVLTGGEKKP
Chain of Nucleoside diphosphate kinase B (P22392 whole entry): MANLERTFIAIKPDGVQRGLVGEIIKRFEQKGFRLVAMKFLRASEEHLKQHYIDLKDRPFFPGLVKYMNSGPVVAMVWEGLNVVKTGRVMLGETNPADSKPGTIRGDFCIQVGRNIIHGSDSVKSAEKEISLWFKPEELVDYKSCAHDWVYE
Chain of 5'-AMP-activated protein kinase subunit gamma-2 (Q9UGJ0 whole entry): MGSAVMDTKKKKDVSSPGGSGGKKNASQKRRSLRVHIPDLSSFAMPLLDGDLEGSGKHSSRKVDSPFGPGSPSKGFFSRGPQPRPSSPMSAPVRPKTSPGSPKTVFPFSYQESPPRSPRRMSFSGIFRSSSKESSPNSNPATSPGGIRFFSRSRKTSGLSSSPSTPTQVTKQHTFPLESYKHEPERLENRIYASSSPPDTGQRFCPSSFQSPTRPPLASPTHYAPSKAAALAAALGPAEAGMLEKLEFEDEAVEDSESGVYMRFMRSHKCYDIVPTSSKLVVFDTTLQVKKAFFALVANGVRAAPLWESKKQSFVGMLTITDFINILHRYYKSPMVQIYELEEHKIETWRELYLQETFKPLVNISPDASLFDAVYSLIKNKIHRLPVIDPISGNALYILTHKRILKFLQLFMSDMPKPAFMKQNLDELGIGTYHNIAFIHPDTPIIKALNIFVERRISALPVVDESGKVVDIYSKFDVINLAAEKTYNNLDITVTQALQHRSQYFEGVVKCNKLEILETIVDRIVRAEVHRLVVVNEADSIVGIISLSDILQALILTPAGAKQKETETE
Chain of ALK tyrosine kinase receptor (Q9UM73 whole entry): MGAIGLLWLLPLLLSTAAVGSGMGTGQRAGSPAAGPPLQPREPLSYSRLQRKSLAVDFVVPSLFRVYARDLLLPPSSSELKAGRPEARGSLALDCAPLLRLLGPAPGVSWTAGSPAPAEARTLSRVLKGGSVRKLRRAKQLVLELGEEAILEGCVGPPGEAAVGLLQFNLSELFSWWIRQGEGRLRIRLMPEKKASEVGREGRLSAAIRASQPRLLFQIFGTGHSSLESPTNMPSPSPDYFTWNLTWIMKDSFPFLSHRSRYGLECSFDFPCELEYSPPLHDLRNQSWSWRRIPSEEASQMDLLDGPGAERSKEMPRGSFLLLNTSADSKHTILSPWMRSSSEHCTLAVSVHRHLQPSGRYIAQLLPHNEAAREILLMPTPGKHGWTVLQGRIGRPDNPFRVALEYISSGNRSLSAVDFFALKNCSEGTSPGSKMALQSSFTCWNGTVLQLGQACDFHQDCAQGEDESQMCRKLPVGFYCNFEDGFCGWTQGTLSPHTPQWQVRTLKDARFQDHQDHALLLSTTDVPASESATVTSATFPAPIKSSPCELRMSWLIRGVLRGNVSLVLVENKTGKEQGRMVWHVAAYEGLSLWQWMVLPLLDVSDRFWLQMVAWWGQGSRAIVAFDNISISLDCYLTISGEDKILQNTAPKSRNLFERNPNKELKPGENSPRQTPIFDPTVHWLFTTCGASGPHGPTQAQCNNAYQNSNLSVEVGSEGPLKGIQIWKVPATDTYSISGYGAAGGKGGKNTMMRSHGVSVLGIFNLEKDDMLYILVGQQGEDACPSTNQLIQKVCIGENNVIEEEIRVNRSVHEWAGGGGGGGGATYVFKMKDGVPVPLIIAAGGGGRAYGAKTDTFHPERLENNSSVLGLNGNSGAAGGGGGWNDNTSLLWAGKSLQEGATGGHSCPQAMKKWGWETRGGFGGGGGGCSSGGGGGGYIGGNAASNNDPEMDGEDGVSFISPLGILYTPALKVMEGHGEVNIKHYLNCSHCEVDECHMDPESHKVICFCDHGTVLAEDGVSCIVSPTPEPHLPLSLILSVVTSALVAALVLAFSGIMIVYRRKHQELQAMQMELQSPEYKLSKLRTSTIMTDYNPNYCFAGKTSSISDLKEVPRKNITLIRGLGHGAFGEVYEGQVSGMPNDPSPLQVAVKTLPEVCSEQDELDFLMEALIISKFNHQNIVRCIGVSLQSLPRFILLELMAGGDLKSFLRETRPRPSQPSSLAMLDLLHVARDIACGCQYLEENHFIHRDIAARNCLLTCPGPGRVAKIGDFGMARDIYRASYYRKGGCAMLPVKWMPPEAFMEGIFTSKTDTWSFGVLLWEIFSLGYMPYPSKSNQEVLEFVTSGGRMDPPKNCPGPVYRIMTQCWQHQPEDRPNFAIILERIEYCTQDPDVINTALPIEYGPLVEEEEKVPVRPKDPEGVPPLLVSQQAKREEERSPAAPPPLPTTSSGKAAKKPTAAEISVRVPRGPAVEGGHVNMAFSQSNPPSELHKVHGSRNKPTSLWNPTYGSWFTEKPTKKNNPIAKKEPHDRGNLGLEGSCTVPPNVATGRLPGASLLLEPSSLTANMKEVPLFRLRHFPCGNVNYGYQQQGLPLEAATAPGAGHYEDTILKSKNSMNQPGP

For `COc1cc2c(Oc3ccc4[nH]c(C)cc4c3F)ncnc2cc1OCCCN1CCCC1` [CEDIRANIB], the Kd in assay [1], in assay [2], in assay [3] and in assay [4] was > 30 µM (inactive) throughout.
In the case of `FC(F)(F)c1ccc(CNc2ccc(Cc3c[nH]c4ncc(Cl)cc34)cn2)cn1` [PEXIDARTINIB], the Kd in assay [1] was > 30 µM (inactive); in assay [2], > 30 µM (inactive); in assay [5] it was > 30000 nM (inactive); in assay [3], 1.45 µM (active); in assay [4], > 30 µM (inactive).
Take `CN(c1ncccc1CNc1nc(Nc2ccc3c(c2)CC(=O)N3)ncc1C(F)(F)F)S(C)(=O)=O` [PF-00562271]: the Kd in assay [6] is 0.862 µM; in assay [7] it was > 30 µM (inactive).
On to `NC(=O)c1ccc(N(C(N)=O)c2c(F)cccc2F)nc1-c1ccc(F)cc1F` [VX-702], for which the Kd in assay [8] is > 30 µM (inactive); in assay [6], > 30 µM (inactive); in assay [5], 2 nM; in assay [7], > 30 µM (inactive).
On to `C=CC(=O)Nc1cc(Nc2nccc(-c3cn(C)c4ccccc34)n2)c(OC)cc1N(C)CCN(C)C` [OSIMERTINIB], for which the Kd in assay [1], in assay [2], in assay [6], in assay [7], in assay [3] and in assay [4] was > 30 µM (inactive) in each case.
